Data: patent publication US20250114374A1, “BCL-2 INHIBITORS” (Newave Pharmaceutical Inc., priority 2021, published 2025)
pIC50: −log10 of the molar value. Read-outs that look alike come from different tables or passages of the source.

System: RS4; 11 with G101V mutation
Test: In vitro anti-proliferation assay (ATPlite luminescence) in BCL-2-dependent ALL cell line RS4;11 with G101V mutation
Type: cell-based
Conditions: read-out: RS411-G101V IC50
Procedure, shortened: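 RS4;11 G101V cells at about 1×10^4 per well were exposed to a range of compound concentrations for about 72 h in medium with 10% FBS. Cellular ATP was measured by ATPlite luminescence after lysis, and IC50 was derived from the dose-response.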

[1] = cellular anti-proliferative IC50, about 72 hours, medium with 10% FBS, ATPlite

Structure (SMILES) | pIC50 [1] | pIC50 (Homo sapiens, RS4-11, 72 h)
Cc1ccccc1[C@@H]1CN(Cc2ccc(F)c(F)c2)CCN1C1CC2(CCN(c3ccc(C(=O)NS(=O)(=O)c4cc5c(c([N+](=O)[O-])c4)N[C@H](C4CCOCC4)CO5)c(N4c5cc6cc[nH]c6nc5O[C@H]5COCC[C@@H]54)c3)CC2)C1 [Example 168, 4-{2-[(2R)-4-[(3,4-difluorophenyl)methyl]-2-(2-methylphenyl)piperazin-1-yl]-7-azaspiro[3.5]nonan-7-yl}-2-[(3R,8S)-2,5-dioxa-9,15,17-triazatetracyclo[8.7.0.0^{3,8}.0^{12,16}]heptadeca-1(10),11,13,16-tetraen-9-yl]-N-[(3R)-5-nitro-3-(oxan-4-yl)-3,4-dihydro-2H-1,4-benzoxazin-7-ylsulfonyl]benzamide] | 7.19 | 
COc1cc(CN2CCN(C3CC4(CCN(c5ccc(C(=O)NS(=O)(=O)c6cc7c(c([N+](=O)[O-])c6)N[C@H](C6CCOCC6)CO7)c(N6c7cc8cc[nH]c8nc7O[C@H]7COCC[C@@H]76)c5)CC4)C3)[C@H](c3ccccc3OC(C)C)C2)cnc1N1CCOC[C@@H]1C [Example 169, 2-[(3R,8S)-2,5-dioxa-9,15,17-triazatetracyclo[8.7.0.0^{3,8}.0^{12,16}]heptadeca-1(10),11,13,16-tetraen-9-yl]-4-{2-[(2R)-2-(2-isopropoxyphenyl)-4-({5-methoxy-6-[(3S)-3-methylmorpholin-4-yl]pyridin-3-yl}methyl)piperazin-1-yl]-7-azaspiro[3.5]nonan-7-yl}-N-[(3R)-5-nitro-3-(oxan-4-yl)-3,4-dihydro-2H-1,4-benzoxazin-7-ylsulfonyl]benzamide] | 8.42 | 
Cc1ccccc1[C@@H]1CN([C@H]2CCOc3cc(F)c(F)cc32)CCN1C1CC2(CCN(c3ccc(C(=O)NS(=O)(=O)c4cc5c(c([N+](=O)[O-])c4)N[C@H](C4CCOCC4)CO5)c(N4c5cc6cc[nH]c6nc5O[C@H]5COCC[C@@H]54)c3)CC2)C1 [Example 170, 4-{2-[(2R)-4-[(4S)-6,7-difluoro-3,4-dihydro-2H-1-benzopyran-4-yl]-2-(2-methylphenyl)piperazin-1-yl]-7-azaspiro[3.5]nonan-7-yl}-2-[(3R,8S)-2,5-dioxa-9,15,17-triazatetracyclo[8.7.0.0^{3,8}.0^{12,16}]heptadeca-1(10),11,13,16-tetraen-9-yl]-N-[(3R)-5-nitro-3-(oxan-4-yl)-3,4-dihydro-2H-1,4-benzoxazin-7-ylsulfonyl]benzamide] | 6.69 | 
Cc1ccccc1[C@@H]1CN([C@@H]2CCOc3cc(F)c(F)cc32)CCN1C1CC2(CCN(c3ccc(C(=O)NS(=O)(=O)c4cc5c(c([N+](=O)[O-])c4)N[C@H](C4CCOCC4)CO5)c(N4c5cc6cc[nH]c6nc5O[C@H]5COCC[C@@H]54)c3)CC2)C1 [Example 171, 4-{2-[(2R)-4-[(4R)-6,7-difluoro-3,4-dihydro-2H-1-benzopyran-4-yl]-2-(2-methylphenyl)piperazin-1-yl]-7-azaspiro[3.5]nonan-7-yl}-2-[(3R,8S)-2,5-dioxa-9,15,17-triazatetracyclo[8.7.0.0^{3,8}.0^{12,16}]heptadeca-1(10),11,13,16-tetraen-9-yl]-N-[(3R)-5-nitro-3-(oxan-4-yl)-3,4-dihydro-2H-1,4-benzoxazin-7-ylsulfonyl]benzamide] | 6.66 | 
COc1cc(CN2CCN(C3CC4(CCN(c5ccc(C(=O)NS(=O)(=O)c6cc7c(c([N+](=O)[O-])c6)N[C@H](C6CCOCC6)CO7)c(N6c7cc8cc[nH]c8nc7O[C@H]7COCC[C@@H]76)c5)CC4)C3)[C@H](c3ccccc3C(C)C)C2)cnc1N1CCOC[C@@H]1C [Example 172, 2-[(3R,8S)-2,5-dioxa-9,15,17-triazatetracyclo[8.7.0.0^{3,8}.0^{12,16}]heptadeca-1(10),11,13,16-tetraen-9-yl]-4-{2-[(2R)-2-(2-isopropylphenyl)-4-({5-methoxy-6-[(3S)-3-methylmorpholin-4-yl]pyridin-3-yl}methyl)piperazin-1-yl]-7-azaspiro[3.5]nonan-7-yl}-N-[(3R)-5-nitro-3-(oxan-4-yl)-3,4-dihydro-2H-1,4-benzoxazin-7-ylsulfonyl]benzamide] | 8.85 | 
COc1cc(CN2CCN(C3CC4(CCN(c5ccc(C(=O)NS(=O)(=O)c6cc7c(c([N+](=O)[O-])c6)N[C@H](C6CCOCC6)CO7)c(N6c7cc8cc[nH]c8nc7O[C@H]7COCC[C@@H]76)c5)CC4)C3)[C@H](c3ccccc3C(C)C)C2)cnc1OC [Example 173, 4-{2-[(2R)-4-[(5,6-dimethoxypyridin-3-yl)methyl]-2-(2-isopropylphenyl)piperazin-1-yl]-7-azaspiro[3.5]nonan-7-yl}-2-[(3R,8S)-2,5-dioxa-9,15,17-triazatetracyclo[8.7.0.0^{3,8}.0^{12,16}]heptadeca-1(10),11,13,16-tetraen-9-yl]-N-[(3R)-5-nitro-3-(oxan-4-yl)-3,4-dihydro-2H-1,4-benzoxazin-7-ylsulfonyl]benzamide] | 9.00 | 
CC(C)Oc1ccccc1[C@@H]1CN([C@@H]2CCCOC2)CCN1C1CC2(CCN(c3ccc(C(=O)NS(=O)(=O)c4cc5c(c([N+](=O)[O-])c4)N[C@H](C4CCOCC4)CO5)c(N4c5cc6cc[nH]c6nc5O[C@H]5COCC[C@@H]54)c3)CC2)C1 [Example 174, 4-(2-((R)-2-(2-isopropoxyphenyl)-4-((R)-tetrahydro-2H-pyran-3-yl)piperazin-1-yl)-7-azaspiro[3.5]nonan-7-yl)-N-(((R)-5-nitro-3-(tetrahydro-2H-pyran-4-yl)-3,4-dihydro-2H-benzo[b][1,4]oxazin-7-yl)sulfonyl)-2-((5aS,9aR)-6,7,9,9a-tetrahydro-1H-pyrano[3,4-b]pyrrolo[3′,2′:5,6]pyrido[3,2-e][1,4]oxazin-5(5aH)-yl)benzamide] |  | 7.33
CC(C)Oc1ccccc1[C@@H]1CN([C@H]2CCCOC2)CCN1C1CC2(CCN(c3ccc(C(=O)NS(=O)(=O)c4cc5c(c([N+](=O)[O-])c4)N[C@H](C4CCOCC4)CO5)c(N4c5cc6cc[nH]c6nc5O[C@H]5COCC[C@@H]54)c3)CC2)C1 [Example 175, 4-(2-((R)-2-(2-isopropoxyphenyl)-4-((S)-tetrahydro-2H-pyran-3-yl)piperazin-1-yl)-7-azaspiro[3.5]nonan-7-yl)-N-(((R)-5-nitro-3-(tetrahydro-2H-pyran-4-yl)-3,4-dihydro-2H-benzo[b][1,4]oxazin-7-yl)sulfonyl)-2-((5aS,9aR)-6,7,9,9a-tetrahydro-1H-pyrano[3,4-b]pyrrolo[3′,2′:5,6]pyrido[3,2-e][1,4]oxazin-5(5aH)-yl)benzamide] |  | 7.17
CC(C)Oc1ccccc1[C@@H]1CN(CC2CCOCC2)CCN1C1CC2(CCN(c3ccc(C(=O)NS(=O)(=O)c4cc5c(c([N+](=O)[O-])c4)N[C@H](C4CCOCC4)CO5)c(N4c5cc6cc[nH]c6nc5O[C@H]5COCC[C@@H]54)c3)CC2)C1 [Example 176, 4-(2-((R)-2-(2-isopropoxyphenyl)-4-((tetrahydro-2H-pyran-4-yl)methyl)piperazin-1-yl)-7-azaspiro[3.5]nonan-7-yl)-N-(((R)-5-nitro-3-(tetrahydro-2H-pyran-4-yl)-3,4-dihydro-2H-benzo[b][1,4]oxazin-7-yl)sulfonyl)-2-((5aS,9aR)-6,7,9,9a-tetrahydro-1H-pyrano[3,4-b]pyrrolo[3′,2′:5,6]pyrido[3,2-e][1,4]oxazin-5(5aH)-yl)benzamide] |  | 7.65
COc1cc(CN2CCN(C3CC4(CCN(c5ccc(C(=O)NS(=O)(=O)c6cc7c(c([N+](=O)[O-])c6)N[C@H](C6CCOCC6)CO7)c(N6c7cc8cc[nH]c8nc7O[C@H]7COCC[C@@H]76)c5)CC4)C3)[C@H](c3ccccc3OC(C)C)C2)cnc1OC [Example 177, 4-(2-((R)-4-((5,6-dimethoxypyridin-3-yl)methyl)-2-(2-isopropoxyphenyl)piperazin-1-yl)-7-azaspiro[3.5]nonan-7-yl)-N-(((R)-5-nitro-3-(tetrahydro-2H-pyran-4-yl)-3,4-dihydro-2H-benzo[b][1,4]oxazin-7-yl)sulfonyl)-2-((5aS,9aR)-6,7,9,9a-tetrahydro-1H-pyrano[3,4-b]pyrrolo[3′,2′:5,6]pyrido[3,2-e][1,4]oxazin-5(5aH)-yl)benzamide] |  | 8.40
Cc1ccccc1[C@@H]1CN([C@@H]2CCCOC2)CCN1C1CC2(CCN(c3ccc(C(=O)NS(=O)(=O)c4cc5c(c([N+](=O)[O-])c4)N[C@H](C4CCOCC4)CO5)c(N4c5cc6cc[nH]c6nc5O[C@H]5COCC[C@@H]54)c3)CC2)C1 [Example 178, N—(((R)-5-nitro-3-(tetrahydro-2H-pyran-4-yl)-3,4-dihydro-2H-benzo[b][1,4]oxazin-7-yl)sulfonyl)-2-((5aS,9aR)-6,7,9,9a-tetrahydro-1H-pyrano[3,4-b]pyrrolo[3′,2′:5,6]pyrido[3,2-e][1,4]oxazin-5(5aH)-yl)-4-(2-((R)-4-((R)-tetrahydro-2H-pyran-3-yl)-2-(o-tolyl)piperazin-1-yl)-7-azaspiro[3.5]nonan-7-yl)benzamide] |  | 7.39
Cc1ccccc1[C@@H]1CN([C@H]2CCCOC2)CCN1C1CC2(CCN(c3ccc(C(=O)NS(=O)(=O)c4cc5c(c([N+](=O)[O-])c4)N[C@H](C4CCOCC4)CO5)c(N4c5cc6cc[nH]c6nc5O[C@H]5COCC[C@@H]54)c3)CC2)C1 [Example 179, N—(((R)-5-nitro-3-(tetrahydro-2H-pyran-4-yl)-3,4-dihydro-2H-benzo[b][1,4]oxazin-7-yl)sulfonyl)-2-((5aS,9aR)-6,7,9,9a-tetrahydro-1H-pyrano[3,4-b]pyrrolo[3′,2′:5,6]pyrido[3,2-e][1,4]oxazin-5(5aH)-yl)-4-(2-((R)-4-((S)-tetrahydro-2H-pyran-3-yl)-2-(o-tolyl)piperazin-1-yl)-7-azaspiro[3.5]nonan-7-yl)benzamide] |  | 7.51
